Assay results published in article PMC8708872, “Discovery of a Novel Template, 7-Substituted 7-Deaza-4′-Thioadenosine Derivatives as Multi-Kinase Inhibitors” (Pharmaceuticals, 2021).

Tests used:
CYP1A2 = molecular target: T1, CYP1A2 (Homo sapiens, UniProt P05177); assay: CYP inhibition assay; type: in vitro ADME; conditions: human, human liver microsomes, pH 7.4, probe Phenacetin 50 μM (in a cocktail of five substrates); inhibitor 0.1 μM; read-out: Percentage of enzyme remaining after inhibition, CYP1A2
T1 construct: Human liver microsomes (0.25 mg/mL); from tissue; host or cells: human liver microsomes
T1 sequence (P05177 whole entry): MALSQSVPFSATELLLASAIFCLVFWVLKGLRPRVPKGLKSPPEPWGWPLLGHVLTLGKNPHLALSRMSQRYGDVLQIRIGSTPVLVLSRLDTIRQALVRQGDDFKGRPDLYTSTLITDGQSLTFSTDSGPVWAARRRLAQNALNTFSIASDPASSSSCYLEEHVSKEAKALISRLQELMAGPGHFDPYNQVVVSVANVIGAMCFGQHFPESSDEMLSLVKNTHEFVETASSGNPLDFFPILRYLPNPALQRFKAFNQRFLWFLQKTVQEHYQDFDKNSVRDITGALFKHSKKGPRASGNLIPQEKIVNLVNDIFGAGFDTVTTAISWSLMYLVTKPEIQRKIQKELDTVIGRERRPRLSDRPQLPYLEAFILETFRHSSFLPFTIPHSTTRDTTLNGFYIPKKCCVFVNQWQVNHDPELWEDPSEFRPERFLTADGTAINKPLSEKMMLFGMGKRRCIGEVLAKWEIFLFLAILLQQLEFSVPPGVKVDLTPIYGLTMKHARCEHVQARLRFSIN
Description: (§1) Human liver microsomes (0.25 mg/mL), 0.1 M phosphate buffer (pH 7.4), a cocktail of five […] substrates (Phenacetin 50 μM, Diclofenac 10 μM, S-mephenytoin 100 μM, Dextromethorphan 5 μM, Midazolam 2.5 μM), and test compound (10 μM concentration) was pre-incubated for 5 min at 37 °C. NADPH generation system solution was added and incubated for 15 min at 37 °C. In order to terminate the reaction, acetonitrile solution containing an internal standard (Terfenadine) was added and centrifuged for 5 min (14,000× g […], 4 °C). The supernatant was injected into the LC-MS/MS system to analyze the metabolites of the substrates simultaneously. Metabolites of each substrate produced during the reaction were analyzed using the Shimadzu Nexera XR system and TSQ vantage (Thermo). Kinetex C18 column (2.1 × 100 mm, 2.6 μm particle size; Phenomenex, USA) was used for HPLC. The mobile phase used contained 0.1% formic acid in distilled water (A) and 0.1% formic acid containing acetonitrile (B). The generated metabolites were quantified using MRM (Multiple Reaction Monitoring) and Xcalibur (version 1.6.1) was used for data analysis.

CYP2C19 = molecular target: T2, CYP2C19 (Homo sapiens, UniProt P33261); assay: CYP inhibition assay; type: in vitro ADME; conditions: human, human liver microsomes, pH 7.4, probe S-mephenytoin 100 μM (in a cocktail of five substrates); inhibitor 0.1 μM; read-out: Percentage of enzyme remaining after inhibition, CYP2C19
T2 construct: Human liver microsomes (0.25 mg/mL); from tissue; host or cells: human liver microsomes
T2 sequence (P33261 whole entry): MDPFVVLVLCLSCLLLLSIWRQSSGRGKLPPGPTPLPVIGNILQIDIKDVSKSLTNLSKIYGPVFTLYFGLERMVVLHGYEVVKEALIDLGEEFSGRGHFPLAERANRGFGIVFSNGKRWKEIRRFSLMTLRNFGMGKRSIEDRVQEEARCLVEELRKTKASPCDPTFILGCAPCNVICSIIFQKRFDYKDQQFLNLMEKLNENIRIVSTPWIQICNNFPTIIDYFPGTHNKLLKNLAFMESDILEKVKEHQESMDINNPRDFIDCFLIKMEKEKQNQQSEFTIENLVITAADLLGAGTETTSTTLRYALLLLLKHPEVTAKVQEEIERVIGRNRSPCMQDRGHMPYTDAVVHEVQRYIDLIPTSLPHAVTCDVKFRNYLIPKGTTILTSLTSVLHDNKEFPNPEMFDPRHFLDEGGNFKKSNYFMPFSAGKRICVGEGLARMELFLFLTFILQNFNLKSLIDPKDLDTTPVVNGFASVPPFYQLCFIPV
Description: as §1

CYP2C9 = molecular target: T3, CYP2C9 (Homo sapiens, UniProt P11712); assay: CYP inhibition assay; type: in vitro ADME; conditions: human, human liver microsomes, pH 7.4, probe Diclofenac 10 μM (in a cocktail of five substrates); inhibitor 0.1 μM; read-out: Percentage of enzyme remaining after inhibition, CYP2C9
T3 construct: Human liver microsomes (0.25 mg/mL); from tissue; host or cells: human liver microsomes
T3 sequence (P11712 whole entry): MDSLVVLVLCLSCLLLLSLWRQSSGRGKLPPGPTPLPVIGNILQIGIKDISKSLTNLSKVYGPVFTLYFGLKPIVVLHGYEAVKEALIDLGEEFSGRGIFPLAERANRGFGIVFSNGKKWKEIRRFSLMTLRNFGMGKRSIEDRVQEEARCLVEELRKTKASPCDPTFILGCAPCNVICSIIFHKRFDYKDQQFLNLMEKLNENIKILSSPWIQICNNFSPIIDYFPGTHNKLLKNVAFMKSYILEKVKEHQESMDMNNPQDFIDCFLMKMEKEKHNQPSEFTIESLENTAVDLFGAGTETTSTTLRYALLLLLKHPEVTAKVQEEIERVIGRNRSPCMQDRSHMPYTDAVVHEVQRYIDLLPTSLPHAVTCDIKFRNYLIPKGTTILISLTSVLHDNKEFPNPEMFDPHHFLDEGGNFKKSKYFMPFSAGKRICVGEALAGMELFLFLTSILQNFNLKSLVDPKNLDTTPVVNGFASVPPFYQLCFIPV
Description: as §1

KM12 = assay: Antiproliferative activity against KM12; type: cell-based; conditions: Homo sapiens, colon cancer cell line highly expressing NTRK1/2/3 and DYRK3, read-out: IC50 cell growth of KM12
ACHN = assay: Antiproliferative activity against ACHN; type: cell-based; conditions: Homo sapiens, renal cancer cell line expressing CK1δ and DYRK2, read-out: IC50 cell growth of ACHN

Structure (SMILES) | remaining at 15 min, 0.1 μM (CYP1A2) | remaining at 15 min, 0.1 μM (CYP2C19) | remaining at 15 min, 0.1 μM (CYP2C9) | IC50 (KM12) | IC50 (ACHN)
CC(=O)N1CCN(c2ccc(OCC3COC(Cn4ccnc4)(c4ccc(Cl)cc4Cl)O3)cc2)CC1 (centres unmarked) [Ketoconazole, reference compound] | 95.7% | 93.6% | 93.6% | – | –
COc1cccc2c1C(=O)c1c(O)c3c(c(O)c1C2=O)C[C@@](O)(C(=O)CO)C[C@@H]3O[C@H]1C[C@H](N)[C@H](O)[C@H](C)O1 [doxorubicin, reference compound] | – | – | – | 120 nM | 40 nM
